In US9199028B2, “Use of entrained neutrophils to treat metastatic and micrometastatic disease in at risk patients” (MEMORIAL SLOAN-KETTERING CANCER CENTER, priority 2010, dated 2015):
Entries after “also recorded” stand apart in the source; their conditions may differ.

How the values were obtained:
[1] = TGFbeta inhibitor, Tocris; cited from earlier work
4T1 tumour-bearing mice = experiment: In vivo administration of Apocynin, spontaneous metastasis assay; parameters: species or system mouse; conditions: Apocynin 2.4 g/liter in drinking water from 24 hours after orthotopic 4T1 injection, vs control
Source text: 4T1, B16-F10, and Lewis Lung Carcinoma (LLC) murine tumour cell lines as well as the human MCF7 and MDA-MB-231 mammary tumour cell lines were purchased from the ATCC. The human 4175 (LM2) cell line was described in Minn, et al., Nature 436:518-524 (2005), herein incorporated by reference). CCL2 and CCL5 knockdown 4T1 cells were generated by lentiviral transduction with CCL2 and CCL5 specific shRNAs from the SKI shRNA lentiviral collection. 4T1, MCF7 and 4175 were orthotopically injected into the mammary fat pad. B16-F10 and LLC cells were injected intradermally. Spontaneous Metastasis Assay 4T1 cells were transduced with pLVX based lentiviral particles encoding for firefly luciferase. Balb/C or nude female mice were orthotopically injected with 5×10^6 luciferase labelled cells. Metastatic progression was monitored using IVIS200 imaging system to measure lung specific luciferase activity starting on day 3 post tumour engraftment. Analysis of metastases size distribution and number was done histologically. Tissue Injury Female FVB mice were anesthetized and shaved at the wounding site. An area of skin (4 mm in diameter) area of skin was surgically removed from the dorsal region. […]
Mice were orthotopically injected with 5×10^6 luciferase labelled 4T1 cells. […] Formation of lung metastases was monitored using the IVIS-200 optical in vivo imaging system. […]

4T1 cells = experiment: In vitro killing assay: TENs co-cultured with 4T1 cells in the presence of inhibitors or TGF-β; format: cell-based, mouse; conditions: TENs + 4T1 cells overnight; Apocynin 100 μM, Catalase 1,000 u/ml, Superoxide Dismutase 1,000 u/ml, Taurine 50 mM
Source text: Antibodies used for immunohistochemistry—MMP9, F4/80 and CCR2 (all from AbCam), Myeloperoxidase (Dako), Ly-6G and Cd11b (both from BD), and Cleaved Caspase 3 (Cell signalling). Antibodies used for western blotting—Actin (Sigma), CCL2 (AbCam) and CCL5 (R&D) p-SMAD2 (cell signalling). Antibodies used for FACS analysis FITC-Ly-6G, FITC-Cd11b, FITC-F4/80, FITC-Cd34 and FITC-c-Kit (all from BD) and VEGFR1-AP (R&D). Neutrophil Depletion Neutrophil depletion was achieved using daily IP injections of 12.5 μg Rat anti-Gr-1 antibody (BD) or Rat anti-Ly-6G antibody (BD) starting on day 3 post tumour engraftment. Starting on day 14, neutrophil depleting antibodies were administered twice daily. Control mice were injected with […] Rat isotype control (BD). Neutrophil depletion was monitored by manual blood differentials and FACS analysis. Flow Cytometry Peripheral blood was collected into EDTA-coated tubes, washed and resuspended in FACS buffer solution (PBS, 2% heat-inactivated FCS, 5 mM EDTA, and 0.02% sodium azide). The samples were blocked with […] and then incubated with fluorophore-conjugated antibodies. Erythrocytes were then lysed with FACS lysing solution (BD Biosciences) and the cell suspensions were analyzed on a FACSCalibur (BD Biosciences). Colony Formation Assay Female nude mice were orthotopically injected with 5×10^6 puromicin resistant 4T1 cells. On days 7 and 14 post tumour engraftment the mice were sacrificed and perfused with PBS. The lungs and livers were removed, washed with PBS and dissociated with Collagenase A (Roche). The single cell suspension was then plated onto puromicin containing media and selected for 14 day. Colonies were stained with Methylene-Blue and counted manually. Mouse Neutrophil Purification Whole blood was collected by cardiac puncture using heparinized (Sigma) syringe. The blood was diluted with 5 volumes of PBS containing 0.5% BSA and subjected to a discontinuous Histopaque (Sigma) gradient (1.077 and 1.119). Neutrophils were collected from the 1.077-1.119 interface, lymphocytes and monocytes collected from the plasma-1.077 interface. RBCs were eliminated by hypotonic lysis. The cells were washed twice with PBS-BSA and re-suspended in OptiMEM (Invitrogen) 0.5% FBS in a final concentration of 2×10^6 cells/ml. Neutrophil purity and viability were determined visually and were consistently >98%. Human Neutrophil Purification As part of a Memorial Sloan-Kettering Cancer Center institutionally approved protocol, blood samples (˜10 cc) were collected from healthy volunteers or from patients who were already having blood drawn for pre-surgical testing. Patients were consented accordingly as part of the approved protocol. […] Patients had either mastectomies or lumpectomies planned and had blood drawn prior to definitive surgical removal of their primary tumor or chemotherapy. Blood samples were transferred to the lab for analysis no more than 1 hour post-blood draw. Heparinzed blood (20 U/ml final) was mixed with an equal volume of Dextran 500 (3% in saline) and incubated 30 minutes at room temperature. The leukocyte-rich supernatant was layered on top of histopaque 1077 (Sigma) and centrifuged. Neutrophils, collected in the pellet fraction, were resuspended in 10 ml 0.2% NaCl for 30 seconds to remove contaminating erythrocytes. Isotonicity was restored by the addition of 10 ml 1.6% NaCl. Neutrophils were than washed three times in Hanks's balanced salt solution and resuspended in RPMI+FCS2%. In vitro Killing Assay Luciferase labelled cells (5,000/well) were plated on a 96-well, flat bottom white polystyrene tissue culture plate in OptiMEM 0.5% FBS (mouse neutrophils) or RPMI 2% FBS (human neutrophils). 4 hours later, purified neutrophils (100,000/well for mouse neutrophils and 5000 for human neutrophils) were added to the plated tumour cells and co-cultured overnight. […]

| SMILES | IC50 [1] [nM] | spontaneous lung metastasis (lung specific luciferase activity) (4T1 tumour-bearing mice) | neutrophil (TEN) mediated tumour-cell killing in the presence of inhibitor (4T1 cells) |
| --- | --- | --- | --- |
| NC(=O)c1ccc(-c2nc(-c3ccc4c(c3)OCO4)c(-c3ccccn3)[nH]2)cc1 [SB431542] | 94 | – | – |
| COc1cc(C(C)=O)ccc1O [Apocynin] | – | enhanced; also recorded: enhances metastasis | completely inhibits the neutrophil mediated tumour-cell killing |
